Several values for one entry are separate records, joined by “and”; a condition that tells them apart may be missing. Equal entries are not always repeated.
system: HEK293; test: cells; assay type: functional, Homo sapiens, ATCC CRL1573; details: ASSAY_TEST Inhibition of Cell Viability; detection method Resazurin; Fluorescence (ex560/em590); MEDIA DMEM with 10% FBS; plate type 384well; TC; CORNING #3712; time 18 hr

SMILES | CC50
COc1cccc(/C=C/c2ccc(C(=O)Nc3cc(C(=O)Nc4cc(C(=O)NCCC(=N)N)n(C)c4)n(C)c3)cc2)c1.O=C(O)C(F)(F)F | 10.1 µg/mL and 10.7 µg/mL
CN(C)CCNC(=O)c1cc(NC(=O)c2cc(NC(=O)c3ccc(/C=C/c4cnc5ccccc5c4)cc3)cn2C)cn1C.O=C(O)C(F)(F)F.O=C(O)C(F)(F)F | 4.83 µg/mL and 2.72 µg/mL and 6.4 µg/mL

same assay, conditions: Homo sapiens, ATCC CRL1573, HEK293; ASSAY_TEST Inhibition of Cell Viability; detection method Resazurin; Fluorescence (ex560/em590); MEDIA DMEM with 10% FBS; plate type 384well; TC; CORNING #3712; time 18 hr; read-out: CC50

SMILES | CC50 [µg/mL]
CN(C)CCCn1cnc(NC(=O)c2cc(NC(=O)c3cc(NC(=O)c4cc5ccccc5cn4)cn3C)cn2C)c1.O=C(O)C(F)(F)F | 7.3
COc1cccc(C(=N)Nc2cc(C(=O)Nc3cc(C(=O)Nc4cc(C(=O)NCCCN(C)C)n(CCC(C)C)c4)n(C)c3)n(C)c2)c1 | > 32
COCCOC1CCN(CCNC(=O)c2cc(NC(=O)c3cc(NC(=O)c4ccc(/C=C/c5ccc6nonc6c5)cc4)cn3C)cn2C)CC1.O=S(=O)(O)O | 3.84
COc1cccc(/C=C/c2ccc(C(=O)Nc3cc(C(=O)Nc4cc(C(=O)NCCC(=N)N)n(C)c4)n(C)c3)cc2)c1.O=C(O)C(F)(F)F | 15.8

system: Staphylococcus aureus; test: not given; details: ASSAY_TEST Inhibition of Bacterial Growth, detection method Absorption (OD600), MEDIA CAMHB, plate type 384well, NBS, CORNING #3640, time 18 hr

MIC [µg/mL] | SMILES
4 | COc1cccc(/C=C/c2ccc(C(=O)Nc3cc(C(=O)Nc4cc(C(=O)NCCC(=N)N)n(C)c4)n(C)c3)cc2)c1.O=C(O)C(F)(F)F
1 | CN(C)CCNC(=O)c1cc(NC(=O)c2cc(NC(=O)c3ccc(/C=C/c4cnc5ccccc5c4)cc3)cn2C)cn1C.O=C(O)C(F)(F)F.O=C(O)C(F)(F)F

system: Candida albicans; test: not given; details: ASSAY_TEST Inhibition of Fungal Growth; detection method Absorption (OD530); plate type 384well; NBS; CORNING #3640

MIC | SMILES
16 µg/mL and 32 µg/mL | COc1cccc(/C=C/c2ccc(C(=O)Nc3cc(C(=O)Nc4cc(C(=O)NCCC(=N)N)n(C)c4)n(C)c3)cc2)c1.O=C(O)C(F)(F)F
32 µg/mL and >32 µg/mL | CN(C)CCNC(=O)c1cc(NC(=O)c2cc(NC(=O)c3ccc(/C=C/c4cnc5ccccc5c4)cc3)cn2C)cn1C.O=C(O)C(F)(F)F.O=C(O)C(F)(F)F

system: Cryptococcus neoformans; test: not given; details: not given

MIC [µg/mL] | SMILES
16 | CN(C)CCCn1cnc(NC(=O)c2cc(NC(=O)c3cc(NC(=O)c4cc5ccccc5cn4)cn3C)cn2C)c1.O=C(O)C(F)(F)F
> 32 | COc1cccc(C(=N)Nc2cc(C(=O)Nc3cc(C(=O)Nc4cc(C(=O)NCCCN(C)C)n(CCC(C)C)c4)n(C)c3)n(C)c2)c1
> 32 | COCCOC1CCN(CCNC(=O)c2cc(NC(=O)c3cc(NC(=O)c4ccc(/C=C/c5ccc6nonc6c5)cc4)cn3C)cn2C)CC1.O=S(=O)(O)O
16 | CN(C)CCNC(=O)c1cc(NC(=O)c2cc(NC(=O)c3ccc(/C=C/c4cnc5ccccc5c4)cc3)cn2C)cn1C.O=C(O)C(F)(F)F.O=C(O)C(F)(F)F

system: Staphylococcus aureus; test: microbe, parasite or virus in culture; details: ATCC 43300, 18 h, ASSAY_TEST Inhibition of Bacterial Growth, detection method Absorption (OD600), MEDIA CAMHB, plate type 384well, NBS, CORNING #3640
Description: Antibacterial activity against Staphylococcus aureus MRSA ATCC 43300 (CO-ADD:GP_020); MIC in CAMBH media, using NBS plates, by OD(600)

SMILES | MIC [µg/mL]
CN(C)CCCn1cnc(NC(=O)c2cc(NC(=O)c3cc(NC(=O)c4cc5ccccc5cn4)cn3C)cn2C)c1.O=C(O)C(F)(F)F | > 32
COc1cccc(C(=N)Nc2cc(C(=O)Nc3cc(C(=O)Nc4cc(C(=O)NCCCN(C)C)n(CCC(C)C)c4)n(C)c3)n(C)c2)c1 | > 32
CN(C)CCNC(=O)c1cc(NC(=O)c2cc(NC(=O)c3ccc(/C=C/c4cnc5ccccc5c4)cc3)cn2C)cn1C.O=C(O)C(F)(F)F.O=C(O)C(F)(F)F | 0.5

Other lines, results leading:

MIC [µg/mL] | SMILES
> 32 | COCCOC1CCN(CCNC(=O)c2cc(NC(=O)c3cc(NC(=O)c4ccc(/C=C/c5ccc6nonc6c5)cc4)cn3C)cn2C)CC1.O=S(=O)(O)O
8 | COc1cccc(/C=C/c2ccc(C(=O)Nc3cc(C(=O)Nc4cc(C(=O)NCCC(=N)N)n(C)c4)n(C)c3)cc2)c1.O=C(O)C(F)(F)F

system: Escherichia coli; test: microbe, parasite or virus in culture; details: ATCC 25922, 18 h, ASSAY_TEST Inhibition of Bacterial Growth, detection method Absorption (OD600), MEDIA CAMHB, plate type 384well, NBS, CORNING #3640
Description: Antibacterial activity against Escherichia coli ATCC 25922 (CO-ADD:GN_001); MIC in CAMBH media using NBS plates, by OD(600)

SMILES | MIC [µg/mL]
CN(C)CCCn1cnc(NC(=O)c2cc(NC(=O)c3cc(NC(=O)c4cc5ccccc5cn4)cn3C)cn2C)c1.O=C(O)C(F)(F)F | > 32
COc1cccc(C(=N)Nc2cc(C(=O)Nc3cc(C(=O)Nc4cc(C(=O)NCCCN(C)C)n(CCC(C)C)c4)n(C)c3)n(C)c2)c1 | > 32
CN(C)CCNC(=O)c1cc(NC(=O)c2cc(NC(=O)c3ccc(/C=C/c4cnc5ccccc5c4)cc3)cn2C)cn1C.O=C(O)C(F)(F)F.O=C(O)C(F)(F)F | > 32

Further lines, results first:

MIC [µg/mL] | SMILES
> 32 | COCCOC1CCN(CCNC(=O)c2cc(NC(=O)c3cc(NC(=O)c4ccc(/C=C/c5ccc6nonc6c5)cc4)cn3C)cn2C)CC1.O=S(=O)(O)O
> 32 | COc1cccc(/C=C/c2ccc(C(=O)Nc3cc(C(=O)Nc4cc(C(=O)NCCC(=N)N)n(C)c4)n(C)c3)cc2)c1.O=C(O)C(F)(F)F

system: Klebsiella pneumoniae; test: microbe, parasite or virus in culture; details: ATCC 700603, 18 h, ASSAY_TEST Inhibition of Bacterial Growth, detection method Absorption (OD600), MEDIA CAMHB, plate type 384well, NBS, CORNING #3640
Description: Antibacterial activity against Klebsiella pneumoniae MDR ATCC 70063 (CO-ADD:GN_003); MIC in CAMBH media using NBS plates, by OD(600)

SMILES | MIC [µg/mL]
CN(C)CCCn1cnc(NC(=O)c2cc(NC(=O)c3cc(NC(=O)c4cc5ccccc5cn4)cn3C)cn2C)c1.O=C(O)C(F)(F)F | > 32
COc1cccc(C(=N)Nc2cc(C(=O)Nc3cc(C(=O)Nc4cc(C(=O)NCCCN(C)C)n(CCC(C)C)c4)n(C)c3)n(C)c2)c1 | > 32
CN(C)CCNC(=O)c1cc(NC(=O)c2cc(NC(=O)c3ccc(/C=C/c4cnc5ccccc5c4)cc3)cn2C)cn1C.O=C(O)C(F)(F)F.O=C(O)C(F)(F)F | > 32

The next lines start with the values.

MIC [µg/mL] | SMILES
> 32 | COCCOC1CCN(CCNC(=O)c2cc(NC(=O)c3cc(NC(=O)c4ccc(/C=C/c5ccc6nonc6c5)cc4)cn3C)cn2C)CC1.O=S(=O)(O)O
> 32 | COc1cccc(/C=C/c2ccc(C(=O)Nc3cc(C(=O)Nc4cc(C(=O)NCCC(=N)N)n(C)c4)n(C)c3)cc2)c1.O=C(O)C(F)(F)F

system: Pseudomonas aeruginosa; test: microbe, parasite or virus in culture; details: ATCC 27853, 18 h, ASSAY_TEST Inhibition of Bacterial Growth, detection method Absorption (OD600), MEDIA CAMHB, plate type 384well, NBS, CORNING #3640
Description: Antibacterial activity against Pseudomonas aeruginosa ATCC 27853 (CO-ADD:GN_042); MIC in CAMBH media using NBS plates, by OD(600)

SMILES | MIC [µg/mL]
CN(C)CCCn1cnc(NC(=O)c2cc(NC(=O)c3cc(NC(=O)c4cc5ccccc5cn4)cn3C)cn2C)c1.O=C(O)C(F)(F)F | > 32
COc1cccc(C(=N)Nc2cc(C(=O)Nc3cc(C(=O)Nc4cc(C(=O)NCCCN(C)C)n(CCC(C)C)c4)n(C)c3)n(C)c2)c1 | > 32
CN(C)CCNC(=O)c1cc(NC(=O)c2cc(NC(=O)c3ccc(/C=C/c4cnc5ccccc5c4)cc3)cn2C)cn1C.O=C(O)C(F)(F)F.O=C(O)C(F)(F)F | > 32

Results, then the molecule that gave them:

MIC [µg/mL] | SMILES
> 32 | COCCOC1CCN(CCNC(=O)c2cc(NC(=O)c3cc(NC(=O)c4ccc(/C=C/c5ccc6nonc6c5)cc4)cn3C)cn2C)CC1.O=S(=O)(O)O
> 32 | COc1cccc(/C=C/c2ccc(C(=O)Nc3cc(C(=O)Nc4cc(C(=O)NCCC(=N)N)n(C)c4)n(C)c3)cc2)c1.O=C(O)C(F)(F)F

system: Acinetobacter baumannii; test: microbe, parasite or virus in culture; details: ATCC 19606, 18 h, ASSAY_TEST Inhibition of Bacterial Growth, detection method Absorption (OD600), MEDIA CAMHB, plate type 384well, NBS, CORNING #3640
Description: Antibacterial activity against Acinetobacter baumannii ATCC 19606 (CO-ADD:GN_034); MIC in CAMBH media using NBS plates, by OD600

SMILES | MIC [µg/mL]
CN(C)CCCn1cnc(NC(=O)c2cc(NC(=O)c3cc(NC(=O)c4cc5ccccc5cn4)cn3C)cn2C)c1.O=C(O)C(F)(F)F | > 32
COc1cccc(C(=N)Nc2cc(C(=O)Nc3cc(C(=O)Nc4cc(C(=O)NCCCN(C)C)n(CCC(C)C)c4)n(C)c3)n(C)c2)c1 | > 32
CN(C)CCNC(=O)c1cc(NC(=O)c2cc(NC(=O)c3ccc(/C=C/c4cnc5ccccc5c4)cc3)cn2C)cn1C.O=C(O)C(F)(F)F.O=C(O)C(F)(F)F | > 32

The next lines start with the values.

MIC [µg/mL] | SMILES
> 32 | COCCOC1CCN(CCNC(=O)c2cc(NC(=O)c3cc(NC(=O)c4ccc(/C=C/c5ccc6nonc6c5)cc4)cn3C)cn2C)CC1.O=S(=O)(O)O
> 32 | COc1cccc(/C=C/c2ccc(C(=O)Nc3cc(C(=O)Nc4cc(C(=O)NCCC(=N)N)n(C)c4)n(C)c3)cc2)c1.O=C(O)C(F)(F)F

system: Candida albicans; test: microbe, parasite or virus in culture; details: ATCC 90028, ASSAY_TEST Inhibition of Fungal Growth, detection method Absorption (OD530), plate type 384well, NBS, CORNING #3640
Description: Antifungal activity against Candida albicans ATCC 90028 (CO-ADD:FG_001); MIC in YNB media using NBS plates, by OD630

SMILES | MIC [µg/mL]
CN(C)CCCn1cnc(NC(=O)c2cc(NC(=O)c3cc(NC(=O)c4cc5ccccc5cn4)cn3C)cn2C)c1.O=C(O)C(F)(F)F | > 32
COc1cccc(C(=N)Nc2cc(C(=O)Nc3cc(C(=O)Nc4cc(C(=O)NCCCN(C)C)n(CCC(C)C)c4)n(C)c3)n(C)c2)c1 | > 32
CN(C)CCNC(=O)c1cc(NC(=O)c2cc(NC(=O)c3ccc(/C=C/c4cnc5ccccc5c4)cc3)cn2C)cn1C.O=C(O)C(F)(F)F.O=C(O)C(F)(F)F | 32

More lines, now with the values ahead:

MIC [µg/mL] | SMILES
> 32 | COCCOC1CCN(CCNC(=O)c2cc(NC(=O)c3cc(NC(=O)c4ccc(/C=C/c5ccc6nonc6c5)cc4)cn3C)cn2C)CC1.O=S(=O)(O)O
> 32 | COc1cccc(/C=C/c2ccc(C(=O)Nc3cc(C(=O)Nc4cc(C(=O)NCCC(=N)N)n(C)c4)n(C)c3)cc2)c1.O=C(O)C(F)(F)F

From ChEMBL document CHEMBL4513139, “CO-ADD screening of University of Strathclyde (UK) compounds”
